# According to PubChem BioAssay (NCI):
#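 Cultured in 96-well plates, cells were exposed to test compound for 48 hours across five concentrations. TGI: concentration producing complete growth inhibition.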
# Experiments:
# Test in all cases: inhibition of tumour cell growth, NCI panel, 48 h
# DMS 114 small cell lung = test system: DMS 114 small cell lung
# HOP-62 NSCLC = test system: HOP-62 NSCLC
# KM20L2 colon = test system: KM20L2 colon
# NCI-H226 lung = test system: NCI-H226 lung
# NCI-H522 lung = test system: NCI-H522 lung
# RXF 393 renal = test system: RXF 393 renal
# SK-MEL-2 melanoma = test system: SK-MEL-2 melanoma
# SK-MEL-5 melanoma = test system: SK-MEL-5 melanoma
# SN12C renal = test system: SN12C renal
# SNB-19 CNS = test system: SNB-19 CNS
SMILES,TGI (DMS 114 small cell lung) [µM],TGI (HOP-62 NSCLC) [µM],TGI (KM20L2 colon) [µM],TGI (NCI-H226 lung) [µM],TGI (NCI-H522 lung) [µM],TGI (RXF 393 renal) [µM],TGI (SK-MEL-2 melanoma) [µM],TGI (SK-MEL-5 melanoma) [µM],TGI (SN12C renal) [µM],TGI (SNB-19 CNS) [µM]
C[C@H]1CCC2C(OC(=O)[C@@H]2CN(C)C)[C@]2(C)C(=O)C=CC12O (stereo not given in full),11.6,45.6,17.7,> 38.1,3.13,4.72,> 54.4,20.3,14.6,> 57.5
COc1cc([C@@H]2c3cc4c(cc3[C@@H](NCc3cccc(F)c3)C3COC(=O)[C@@H]32)OCO4)cc(OC)c1O (stereo not given in full),31.6,4.76,21.2,6.55,19.4,45.3,29.5,17.9,12.8,> 65
